Measured values from US20090155209A1, “NOVEL MACROCYCLIC INHIBITORS OF HEPATITIS C VIRUS REPLICATION” (priority 2007, published 2009).

Legend:
NS3-NS4 [1] = biological target: T1, NS3-NS4 (Hepatitis C virus genotype 1a, UniProt P27958); experiment: NS3-NS4 activity, IC50 (Example 37, Table 8); format: biochemical
NS3-NS4 [2] = biological target: T1, NS3-NS4; experiment: cell-based; conditions: EC50, NS3-NS4 activity

T1 sequence (P27958 1027-1657): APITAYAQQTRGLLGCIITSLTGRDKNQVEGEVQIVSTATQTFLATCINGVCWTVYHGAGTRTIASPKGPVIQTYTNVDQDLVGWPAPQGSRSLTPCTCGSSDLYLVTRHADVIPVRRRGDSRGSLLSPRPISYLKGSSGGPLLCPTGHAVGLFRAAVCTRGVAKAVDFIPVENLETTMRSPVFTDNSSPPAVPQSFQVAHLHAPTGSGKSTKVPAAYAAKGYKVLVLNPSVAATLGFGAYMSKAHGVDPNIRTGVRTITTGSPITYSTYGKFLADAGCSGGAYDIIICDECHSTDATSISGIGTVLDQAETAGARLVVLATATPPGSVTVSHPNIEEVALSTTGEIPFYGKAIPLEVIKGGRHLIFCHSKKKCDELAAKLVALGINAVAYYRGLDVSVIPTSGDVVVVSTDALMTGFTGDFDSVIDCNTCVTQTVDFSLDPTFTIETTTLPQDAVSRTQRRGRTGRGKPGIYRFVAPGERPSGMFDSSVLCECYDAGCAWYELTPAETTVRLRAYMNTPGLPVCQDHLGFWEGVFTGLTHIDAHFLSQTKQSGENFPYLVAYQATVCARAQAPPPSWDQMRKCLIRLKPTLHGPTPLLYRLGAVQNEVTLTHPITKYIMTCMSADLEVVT
T1 sequence (P27958 1658-1711): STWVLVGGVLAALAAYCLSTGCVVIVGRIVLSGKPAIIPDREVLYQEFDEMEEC

Row | Structure (SMILES) | IC50 (NS3-NS4 [1]) | EC50 (NS3-NS4 [2])
1 | CC(=O)O[C@@H]1C[C@H]2C(=O)N[C@]3(C(=O)NS(=O)(=O)C4CC4)C[C@H]3/C=C\CCCCC[C@H](Nc3nc(-c4ccccc4)c(-c4ccccc4)s3)C(=O)N2C1 [Compound 235] | < 100 nM | 100 to 1000 nM
2 | CC(C)(C)OC(=O)N[C@H]1CCCCC/C=C\[C@@H]2C[C@@]2(C(=O)NS(=O)(=O)C2(C)CC2)NC(=O)[C@@H]2C[C@@H](OC(=O)N3Cc4cccc(F)c4C3)CN2C1=O [Compound 444] | < 100 nM | < 100 nM
3 | CC(C)CS(=O)(=O)NC(=O)[C@@]12C[C@H]1/C=C\CCCCC[C@H](NC(=O)OC(C)(C)C)C(=O)N1C[C@H](OC(=O)N3Cc4cccc(F)c4C3)C[C@H]1C(=O)N2 [Compound 551] | < 100 nM | < 100 nM
4 | CN(C(=O)N[C@H]1CCCCC/C=C\[C@@H]2C[C@@]2(C(=O)NS(=O)(=O)c2ccccc2Cl)NC(=O)[C@@H]2C[C@@H](OC(=O)N3Cc4cccc(F)c4C3)CN2C1=O)C(C)(C)C [Compound 359] | < 100 nM | < 100 nM
5 | CC(C)(C)OC(=O)N[C@H]1CCCCC/C=C\[C@@H]2C[C@@]2(C(=O)NS(=O)(=O)c2cc(Cl)ccc2F)NC(=O)[C@@H]2C[C@@H](OC(=O)N3Cc4cccc(F)c4C3)CN2C1=O [Compound 314] | < 100 nM | < 100 nM
6 | CC(C)(C)OC(=O)N[C@H]1CCCCC/C=C\[C@@H]2C[C@@]2(C(=O)NS(=O)(=O)c2cccc(F)c2)NC(=O)[C@@H]2C[C@@H](OC(=O)N3Cc4cccc(F)c4C3)CN2C1=O [Compound 350] | < 100 nM | < 100 nM
7 | Cc1ccc(ONC(=O)[C@@]23C[C@H]2CCCCCCC[C@H](NC(=O)OC(C)(C)C)C(=O)N2C[C@H](OC(=O)N4Cc5cccc(F)c5C4)C[C@H]2C(=O)N3)cc1C [Compound 802] | < 100 nM | 1000 to 10000 nM
8 | COc1ccc(S(=O)(=O)NC(=O)[C@@]23C[C@H]2CCCCCCC[C@H](NC(=O)OC(C)(C)C)C(=O)N2C[C@H](OC(=O)N4Cc5cccc(F)c5C4)C[C@H]2C(=O)N3)cn1 [Compound 638] | < 100 nM | < 100 nM
9 | CCC(C)(C)OC(=O)N[C@H]1CCCCC/C=C\[C@@H]2C[C@@]2(C(=O)NS(=O)(=O)C2CC2)NC(=O)[C@@H]2C[C@@H](OC(=O)N3Cc4cccc(F)c4C3)CN2C1=O [Compound 405, (2R,6S,13aS,14aR,16aS,Z)-14a-(cyclopropylsulfonylcarbamoyl)-5,16-dioxo-6-(tert-pentyloxycarbonylamino)-1,2,3,5,6,7,8,9,10,11,13a,14,14a,15,16,16a-hexadecahydrocyclopropa[e]pyrrolo[1,2-a][1,4]diazacyclopentadecin-2-yl 4-fluoroisoindoline-2-carboxylate] | < 100 nM | < 100 nM
10 | CC(C)(OC(=O)N[C@H]1CCCCC/C=C\[C@@H]2C[C@@]2(C(=O)NS(=O)(=O)C2CC2)NC(=O)[C@@H]2C[C@@H](OC(=O)N3Cc4cccc(F)c4C3)CN2C1=O)C1CC1 [Compound 443] | < 100 nM | < 100 nM
11 | CC(C)COC(=O)N[C@H]1CCCCC/C=C\[C@@H]2C[C@@]2(C(=O)NS(=O)(=O)C2CC2)NC(=O)[C@@H]2C[C@@H](OC(=O)N3Cc4cccc(F)c4C3)CN2C1=O [Compound 436] | < 100 nM | < 100 nM
12 | O=C(C[C@H]1CCCCC/C=C\[C@@H]2C[C@@]2(C(=O)NS(=O)(=O)C2CC2)NC(=O)[C@@H]2C[C@@H](OC(=O)N3Cc4cccc(F)c4C3)CN2C1=O)Oc1ccccc1 [Compound 419] | < 100 nM | 100 to 1000 nM
13 | CCCS(=O)(=O)NC(=O)[C@@]12C[C@H]1CCCCCCC[C@H](NC(=O)OC(C)(C)C)C(=O)N1C[C@H](OC(=O)N3Cc4cccc(F)c4C3)C[C@H]1C(=O)N2 [Compound 655] | < 100 nM | < 100 nM
14 | CC(C)(C)OC(=O)N[C@H]1CCCCC/C=C\[C@@H]2C[C@@]2(C(=O)NS(=O)(=O)c2ccc(Cl)cc2Cl)NC(=O)[C@@H]2C[C@@H](OC(=O)N3Cc4cccc(F)c4C3)CN2C1=O [Compound 348] | < 100 nM | < 100 nM
15 | O=C1N[C@]2(C(=O)NS(=O)(=O)C3CC3)C[C@H]2/C=C\CCCCC[C@H](Nc2nc(-c3ccc(F)cc3)cs2)C(=O)N2C[C@H](OC(=O)N3Cc4cccc(F)c4C3)C[C@@H]12 [Compound 208] | < 100 nM | < 100 nM
16 | CC(C)(C)OC(=O)N[C@H]1CCCCC/C=C\[C@@H]2C[C@@]2(C(=O)NS(=O)(=O)c2c(F)cccc2F)NC(=O)[C@@H]2C[C@@H](OC(=O)N3CCc4ccccc4C3)CN2C1=O [Compound 363] | < 100 nM | 1000 to 10000 nM

Row | Structure (SMILES) | IC50 (NS3-NS4 [1]) | EC50 (NS3-NS4 [2])
17 | Cc1ccccc1S(=O)(=O)NC(=O)[C@@]12C[C@H]1/C=C\CCOCC[C@H](NC(=O)OC(C)(C)C)C(=O)N1C[C@H](OC(=O)N3Cc4cccc(Cl)c4C3)C[C@H]1C(=O)N2 [Compound 321, (2R,6S,13aS,14aR,16aSZ)-6-(tert-butoxycarbonylamino)-5,16-dioxo-14a-(o-tolylsulfonylcarbamoyl)-2,3,5,6,7,8,10,11,13a,14,14a,15,16,16a-tetradecahydro-1H-cyclopropa[j]pyrrolo[1,2-f][1,6,9]oxadiazacyclopentadecin-2-yl 4-chloroisoindoline-2-carboxylate] | < 100 nM | < 100 nM
18 | Cc1ccc(CS(=O)(=O)NC(=O)[C@@]23C[C@H]2/C=C\CCCCC[C@H](NC(=O)OC(C)(C)C)C(=O)N2C[C@H](OC(=O)N4Cc5cccc(F)c5C4)C[C@H]2C(=O)N3)cc1 [Compound 515] | < 100 nM | < 100 nM
19 | CC(C)(C)OC(=O)N[C@H]1CCCCC/C=C\[C@@H]2C[C@@]2(C(=O)NS(=O)(=O)Cc2cc(C(F)(F)F)cc(C(F)(F)F)c2)NC(=O)[C@@H]2C[C@@H](OC(=O)N3Cc4cccc(F)c4C3)CN2C1=O [Compound 528] | < 100 nM | 10000 to 50000 nM
20 | Cc1ccccc1S(=O)(=O)NC(=O)[C@@]12C[C@H]1CCCCCCC[C@H](NC(=O)OC(C)(C)C)C(=O)N1C[C@H](OC(=O)N3Cc4cccc(F)c4C3)C[C@H]1C(=O)N2 [Compound 602] | < 100 nM | < 100 nM
21 | CC(C)CONC(=O)[C@@]12C[C@H]1CCCCCCC[C@H](NC(=O)OC(C)(C)C)C(=O)N1C[C@H](OC(=O)N3Cc4cccc(F)c4C3)C[C@H]1C(=O)N2 [Compound 814] | < 100 nM | < 100 nM
22 | Cc1ccc(C)c(S(=O)(=O)NC(=O)[C@@]23C[C@H]2/C=C\CCCCC[C@H](NC(=O)OC(C)(C)C)C(=O)N2C[C@H](OC(=O)N4Cc5cccc(F)c5C4)C[C@H]2C(=O)N3)c1 [Compound 313] | < 100 nM | < 100 nM
23 | CC(C)(C)OC(=O)N[C@H]1CCOCC/C=C\[C@@H]2C[C@@]2(C(=O)NS(=O)(=O)c2cc(Cl)sc2Cl)NC(=O)[C@@H]2C[C@@H](OC(=O)N3Cc4cccc(Cl)c4C3)CN2C1=O [Compound 322, (2R,6S,13aS,14aR,16aS,Z)-6-(tert-butoxycarbonylamino)-14a-(2,5-dichlorothiophen-3-ylsulfonylcarbamoyl)-5,16-dioxo-2,3,5,6,7,8,10,11,13a,14,14a,15,16,16a-tetradecahydro-1H-cyclopropa[j]pyrrolo[1,2-f][1,6,9]oxadiazacyclopentadecin-2-yl 4-chloroisoindoline-2-carboxylate] | < 100 nM | < 100 nM
24 | CCC1(OC(=O)N[C@H]2CCCCC/C=C\[C@@H]3C[C@@]3(C(=O)NS(=O)(=O)C3CC3)NC(=O)[C@@H]3C[C@@H](OC(=O)N4Cc5cccc(F)c5C4)CN3C2=O)CC1 [Compound 442] | < 100 nM | < 100 nM
25 | O=C1N[C@]2(C(=O)NS(=O)(=O)C3CC3)C[C@H]2/C=C\CCCCC[C@H](Nc2nc(-c3nc4ccccc4s3)cs2)C(=O)N2C[C@H](OC(=O)N3Cc4cccc(F)c4C3)C[C@@H]12 [Compound 217] | < 100 nM | < 100 nM
26 | CC(C)(C)OC(=O)N[C@H]1CCCCCCC[C@@H]2C[C@@]2(C(=O)NS(=O)(=O)c2ccccc2)NC(=O)[C@@H]2C[C@@H](OC(=O)N3Cc4cccc(F)c4C3)CN2C1=O [Compound 601] | < 100 nM | < 100 nM
27 | COCC1(S(=O)(=O)NC(=O)[C@@]23C[C@H]2CCCCCCC[C@H](NC(=O)OC(C)(C)C)C(=O)N2C[C@H](OC(=O)N4Cc5cccc(F)c5C4)C[C@H]2C(=O)N3)CC1 [Compound 652] | < 100 nM | < 100 nM
28 | Cc1ccc(C)c(CS(=O)(=O)NC(=O)[C@@]23C[C@H]2CCCCCCC[C@H](NC(=O)OC(C)(C)C)C(=O)N2C[C@H](OC(=O)N4Cc5cccc(F)c5C4)C[C@H]2C(=O)N3)c1 [Compound 629] | < 100 nM | < 100 nM
29 | CC(C)(C)OC(=O)N[C@H]1CCCCC/C=C\[C@@H]2C[C@@]2(C(=O)NS(=O)(=O)c2ccc(Cl)cc2)NC(=O)[C@@H]2C[C@@H](OC(=O)N3Cc4cccc(F)c4C3)CN2C1=O [Compound 333] | < 100 nM | < 100 nM
30 | CC(C)(C)OC(=O)N[C@H]1CCCCCCC[C@@H]2C[C@@]2(C(=O)NOc2ccc(-c3ccccc3)cc2)NC(=O)[C@@H]2C[C@@H](OC(=O)N3Cc4cccc(F)c4C3)CN2C1=O [Compound 803] | < 100 nM | 1000 to 10000 nM
31 | CC(C)ONC(=O)[C@@]12C[C@H]1CCCCCCC[C@H](NC(=O)OC(C)(C)C)C(=O)N1C[C@H](OC(=O)N3Cc4cccc(F)c4C3)C[C@H]1C(=O)N2 [Compound 812] | < 100 nM | < 100 nM
